{"source": "paper PMC9845330", "about": "(Communications Biology, 2023)", "key": {"[1]": {"test_system": "H1299 cells", "assay": "Cell binding and internalization by flow cytometry, relative (normalized) uptake of peptide-streptavidin-phycoerythrin", "format": "cell-based, human", "conditions": "for Bmax (best-fit): Supplementary Table 2, normalized binding; for fold decrease in affinity: C-terminal truncation versus full-length monomer", "protocol": "MGS4 was initially selected by phage display biopanning of a peptide library on live cells. […] As such, multivalent binding is often required. To ascertain whether multivalent binding is required for MGS4 internalization, monomeric (MGS4_V2) and tetrameric (MGS4_V1) peptides were synthesized and labeled as described (Supplementary Figure 1). After incubation of varying peptide concentrations on live cells, surface-bound peptide was removed by low pH washes, as well as trypsinization. Relative internalization was measured by flow cytometry to determine an EC50 value which represents the concentration of peptide producing half-maximal internalization. This measurement is dependent on the affinity of the peptide for its cellular target and the rate of internalization. This is a more accurate representation of the biological situation and useful in evaluating the peptides as drug delivery agents. As expected for receptor-mediated endocytosis, uptake of MGS4 is saturable with increasing concentration.\nFig. 1 Monomeric and tetrameric MGS4 have similar binding, internalization and subcellular location. a Binding and internalization of tetrameric MGS4_V1 and monomeric MGS4_V2 on live H1299 cells in culture. Cells were incubated with the peptide conjugated to streptavidin-phycoerythrin for 1 h at 37 °C. Non-internalized peptide was removed and the cells were analyzed by flow cytometry. b H1299 cells were incubated with MGS4_V1 or MGS4_V2 conjugated to streptavidin-Alexa Fluor 555 (red) for 1 h, washed, fixed and counterstained with WGA-Alexa Fluor 488 (green, cell membrane) and DAPI (blue, nuclei) and analyzed by fluorescence microscopy. The scale bar represents 20 µm. MGS4_V1 and MGS4_V2 internalize to a similar degree and localize to a similar destination. c Truncated monomeric MGS4 peptides have similar EC50 as the parental full-length peptide. Individual measurements are shown. The mean is shown as an “X” and black error bars represent standard error for a minimum of three experimental replicates (SEM). All original binding data and nonlinear regression analysis of the data are included in the supplementary materials.\nBiotinylated peptide was conjugated to streptavidin-R-phycoerythrin or streptavidin-Alexa Fluor 647 (1:1 molar ratio) for 30 min. The open binding sites on streptavidin were quenched with RPMI 1640 and diluted to the indicated concentration. Tumor cells were grown to 90% confluency in a 12 well plate, then incubated with 500 µl peptide-dye conjugate at 37 °C. After 1 h, peptide was removed, and the cells were washed 3x with PBS (137 mM NaCl, 2.7 mM KCl, 10 mM Na2HPO4, 1.8 mM KH2PO4, pH 7.4), 2x with 0.1 M HCl-glycine pH2.2 in 0.9% NaCl, and 1x PBS rinse. Cells were removed by trypsinization. Flow cytometry was performed on a BD FACSCelesta, and data were analyzed on Flowing software. Cells were gated based on the forward and side scatter to include only viable cells and a minimum of 10,000 events were counted. A region containing <5% of the cells in the negative control was established, and relative peptide uptake by the mean fluorescence intensity of that population. For absolute peptide uptake per cell, a standard curve was generated using Quantum™ Alexa Fluor 647 microspheres (Bangs Laboratory, Fishers, IN). A representative linear regression showing the correlation of molecule equivalents soluble fluorophores (MESF) vs the mean fluorescence intensity (MFI) is shown in Supplemental Figure 6. Cells were gated based on the forward and side scatter to include only viable cells and a minimum of 10,000 events were counted. MFI was determined at 50% at peak height. Molecules internalized per cell were determined by the standard curve relating MESF to MFI and divided by the number dye molecules/MGS conjugate. An example is shown in supplemental Figure 7. GraphPad Prism® was used for non-linear regression curve fitting to calculate an EC50. […]"}, "[2]": {"assay": "Stability in human serum", "format": "in vitro ADME", "conditions": "100% human serum, 48 h, 37 °C, serum proteins precipitated, analytical HPLC, MALDI TOF/TOF MS", "protocol": "To address if acetylation is effective in reducing serum degradation of MGS4, acetylated (MGS4_V8) and non-acetylated (MGS4_V4) peptides were dissolved in human serum and incubated for 48 h at 37 °C. The peptides were monitored by analytical HPLC, and products were verified via MALDI TOF/TOF™ MS. […] Instead, a mixture of peptide fragments is detected, none of which correspond to the mass of the starting peptide (Supplemental Table 1 and Supplemental Fig. 2). The major products are shorter fragments corresponding to the loss of the five N-terminal amino acids. Fragments related to QSFYT-PEG11, SFYT-PEG11 and FYT-PEG11 are observed.\nSupplemental Figure 1. […]\nM GS4_V4 (non-acetylated, panel a) and M GS4_V8 (acetylated, panel b ) were incubated in 100% human serum for 0 and 48-hours. Serum proteins were precipitated, and the peptide was analyzed by analytical\nHPLC. The mass of the peptide and degradation products were determined by MALDI MS and are […]\nMGS4_V8, MGS4_V9, or MGS4_V10 were conjugated with streptavidin-Alexa Fluor 650 and were incubated with the indicated cell line for 1 hour. Non-internalized peptide was rem ov ed, and the mean number of peptides internalized per cell was determined to calculate the EC50. […]\nSupplemental Figure 4 : Peptide-Streptavidin conjugates are nontoxic to cells. a. […] After 72 hours, viability was measured. […]"}, "[3]": {"assay": "100% human serum", "conditions": "37 °C, up to 48 h"}, "[4]": {"conditions": "H1299 cells, 1 h at 37 °C, normalized uptake, one-site specific binding fit, Average ± SEM, minimum 3 replicates"}}, "note": "Entries after “also recorded” stand apart in the source; their conditions may differ. Non-standard residues stand in square brackets, D forms with d. Residues, ends and D or L forms follow the SMILES beside them. *: point of attachment. X1 = O=C(CCCC[C@@H]1SC[C@@H]2NC(=O)N[C@@H]21)NCCCOCCOCCOCCCN*; PEG12 = NCCOCCOCCOCCOCCOCCOCCOCCOCCOCCOCCOCCOCCC(=O)O", "data": [{"molecule": "CC(C)[C@H](NC(=O)[C@H](C)NC(=O)[C@H](Cc1c[nH]cn1)NC(=O)[C@@H](N)Cc1ccccc1)C(=O)N1CCC[C@H]1C(=O)N[C@@H](CCC(N)=O)C(=O)N[C@@H](CO)C(=O)N[C@@H](Cc1ccccc1)C(=O)N[C@@H](Cc1ccc(O)cc1)C(=O)N[C@H](C(=O)N[C@@H](C)C(=O)N1CCC[C@H]1C(=O)NCCOCCOCCOCCOCCOCCOCCOCCOCCOCCOCCOCCOCCC(=O)N[C@@H](CCC(=O)NCCCOCCOCCOCCCNC(=O)CCCC[C@@H]1SC[C@@H]2NC(=O)N[C@@H]21)C(N)=O)[C@@H](C)O", "note": "[MGS4_V2] (H-FHAVPQSFYTAP[PEG12]E(X1)-NH2)", "values": [{"measurement": "Bmax (best-fit)", "setting": "[1]", "value": 1.065}]}, {"molecule": "CC(C)[C@H](NC(=O)[C@H](C)NC(=O)[C@H](Cc1c[nH]cn1)NC(=O)[C@@H](N)Cc1ccccc1)C(=O)N1CCC[C@H]1C(=O)N[C@@H](CCC(N)=O)C(=O)N[C@@H](CO)C(=O)N[C@@H](Cc1ccccc1)C(=O)N[C@@H](Cc1ccc(O)cc1)C(=O)N[C@H](C(=O)N[C@@H](C)C(=O)NCCOCCOCCOCCOCCOCCOCCOCCOCCOCCOCCOCCOCCC(=O)N[C@@H](CCC(=O)NCCCOCCOCCOCCCNC(=O)CCCC[C@@H]1SC[C@@H]2NC(=O)N[C@@H]21)C(N)=O)[C@@H](C)O", "note": "[MGS4_V3] (H-FHAVPQSFYTA[PEG12]E(X1)-NH2)", "values": [{"measurement": "fold decrease in affinity", "setting": "[1]", "value": "3-5 fold"}, {"measurement": "Bmax (best-fit)", "setting": "[1]", "value": 1.247}]}, {"molecule": "CC(C)[C@H](NC(=O)[C@H](C)NC(=O)[C@H](Cc1c[nH]cn1)NC(=O)[C@@H](N)Cc1ccccc1)C(=O)N1CCC[C@H]1C(=O)N[C@@H](CCC(N)=O)C(=O)N[C@@H](CO)C(=O)N[C@@H](Cc1ccccc1)C(=O)N[C@@H](Cc1ccc(O)cc1)C(=O)N[C@H](C(=O)NCCOCCOCCOCCOCCOCCOCCOCCOCCOCCOCCOCCOCCC(=O)N[C@@H](CCC(=O)NCCCOCCOCCOCCCNC(=O)CCCC[C@@H]1SC[C@@H]2NC(=O)N[C@@H]21)C(N)=O)[C@@H](C)O", "note": "[MGS4_V4] (H-FHAVPQSFYT[PEG12]E(X1)-NH2)", "values": [{"measurement": "fold decrease in affinity", "setting": "[1]", "value": "3-5 fold"}, {"measurement": "Bmax (best-fit)", "setting": "[1]", "value": 1.402}, {"measurement": "peptide after incubation in human serum", "setting": "[2]", "value": "none of the starting material"}]}, {"molecule": "CC(=O)N[C@@H](Cc1ccccc1)C(=O)N[C@@H](Cc1c[nH]cn1)C(=O)N[C@@H](C)C(=O)N[C@H](C(=O)N1CCC[C@H]1C(=O)N[C@@H](CCC(N)=O)C(=O)N[C@@H](CO)C(=O)N[C@@H](Cc1ccccc1)C(=O)N[C@@H](Cc1ccc(O)cc1)C(=O)N[C@H](C(=O)N[C@@H](C)C(=O)N1CCC[C@H]1C(=O)NCCOCCOCCOCCOCCOCCOCCOCCOCCOCCOCCOCCOCCC(=O)N[C@@H](CCC(=O)NCCCOCCOCCOCCCNC(=O)CCCC[C@@H]1SC[C@@H]2NC(=O)N[C@@H]21)C(N)=O)[C@@H](C)O)C(C)C", "note": "[MGS4_V7] (Ac-FHAVPQSFYTAP[PEG12]E(X1)-NH2)", "values": [{"measurement": "Bmax (best-fit)", "setting": "[1]", "value": 1.470}]}, {"molecule": "AcFHAVPQSFYT-PEG11", "values": [{"measurement": "not cleaved", "setting": "[3]", "value": "only full-length peptide observed after 48 h; 93.4% of peak at 48 Hours (93.5% in starting material)"}]}, {"molecule": "FHAVPQSFY*** [MGS4_V5, monomeric MGS4 truncated by three C-terminal amino acids]", "values": [{"measurement": "EC50 (nM)", "setting": "[1]; [4]", "value": "Not Detected^2"}]}, {"molecule": "FHAVPQSFYT-PEG11", "values": [{"measurement": "cleaved bond", "setting": "[3]", "value": "P-Q, major, 48 Hours"}, {"measurement": "fragment found", "setting": "[3]", "value": "SFYT-PEG11, 48 Hours; also recorded: FYT-PEG11, 48 Hours"}]}, {"molecule": "FHAVPQSFYTAP [MGS4_V1, tetrameric full-length MGS4 peptide]", "values": [{"measurement": "EC50", "setting": "[1]; [4]", "value": "3.6 ± 0.49", "unit": "nM"}, {"measurement": "Bmax (best-fit)", "setting": "[1]", "value": 1.171}]}]}
